Data from patent publication US7982038B2 (priority 2003, dated 2011).

Target: α7 nAChR subtype (Rattus norvegicus, UniProt Q05941)
Type: binding
Conditions: read-out: KD (saturation curve, one site model)

α7 nAChR subtype, sequence (Q05941 23-502 limits assumed): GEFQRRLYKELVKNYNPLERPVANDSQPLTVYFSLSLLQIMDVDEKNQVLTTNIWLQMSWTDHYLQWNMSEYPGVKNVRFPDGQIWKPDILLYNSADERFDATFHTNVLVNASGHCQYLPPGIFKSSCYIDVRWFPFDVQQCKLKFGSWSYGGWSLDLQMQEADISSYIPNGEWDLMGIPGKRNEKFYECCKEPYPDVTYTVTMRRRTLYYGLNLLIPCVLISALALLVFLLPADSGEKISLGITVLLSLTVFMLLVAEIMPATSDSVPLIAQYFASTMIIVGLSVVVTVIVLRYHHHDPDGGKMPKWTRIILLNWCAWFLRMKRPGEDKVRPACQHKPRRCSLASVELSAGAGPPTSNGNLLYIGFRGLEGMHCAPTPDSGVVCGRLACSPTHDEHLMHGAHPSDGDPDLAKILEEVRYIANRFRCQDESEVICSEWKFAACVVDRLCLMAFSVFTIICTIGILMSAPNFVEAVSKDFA

**Q.** [^125I]-α-Bungarotoxin [^125I-α-BTX] was tested. Which Kd did it give?
**A.** 1.67 nM
